We go through ten compounds from article PMC6268073, “Synthesis and Antiplasmodial Activity of Betulinic Acid and Ursolic Acid Analogues” (Molecules, 2012).

The subject of data set [1] is P. falciparum chloroquine-sensitive 3D7 strain. Briefly: Antiplasmodial assay, microdilution in vitro, flow cytometry. The class given is cell-based, Plasmodium falciparum. Conditions: for IC50: Plasmodium falciparum; for Antiplasmodial activity grade in words: P. falciparum 3D7. The method, then: The strains were maintained in human erythrocytes in a gas mixture containing 5% O2, 5% CO2 and 90% N2 [24]. The culture was synchronised by 10% sorbitol treatment. The antimalarial activity was measured using the microdilution technique in vitro. […] Samples were dissolved in water, dimethylsulfoxide (DMSO) or methanol and serially diluted with the culture medium. To evaluate parasitemia, Giemsa staining and flow cytometric analysis were used. The concentration of the drug required to inhibit parasite growth was determined by comparing the fluorescence incorporated into the treated and untreated cultures (control). The concentration causing 50% inhibition (IC50) was determined from the drug concentration response curve.
(In general: Broth dilution looks for growth in wells or tubes with falling amounts of substance.)

Data set [2] in a line: Cytotoxicity assay, dihydroethidium staining, flow cytometry. The class given is cell-based, human. The settings on record: human. The procedure: (§1) Human embryonic kidney (HEK293T) cells were cultured in surface area 75 cm^2 (Greiner Bio-One, Frickenhausen, Germany) vented tissue culture flasks at 37 °C in a humidified atmosphere containing 5% CO2 in Dulbecco’s modified essential medium (Gibco/Life Technologies, Grand Island, NY, USA) supplemented with 10% (v/v) foetal bovine serum, 100 U/mL penicillin and 100 µg/mL streptomycin. After 24 h, 50 µl of each drug was added with 0.5% DMSO or methanol to a single well. The cells were incubated with the test drugs for an additional 24 and 48 h and then harvested with trypsin, gently pelleted by centrifugation and re-suspended in PBS. The cells were stained with dihydroethidium solution (10 mg/mL in phosphate buffered saline), gently vortexed and incubated for 40 min at 37 °C in the dark. Ten thousand gated events were acquired for each sample (FACSCalibur BD and CellQuest software was used for analysis).
(In general: In flow cytometry, cells or beads pass a laser one at a time.)

The test system of a further data set is HEK293T cells. The data set is described as above. The class given is cell-based, human. Conditions: for Selectivity Index (SI) 48 h: HEK293T IC50 versus P. falciparum 3D7 IC50, 48 h; for IC50: Homo sapiens, HEK-293T; for IC50 / Cytotoxicity judgement in words: HEK293T; for Cytotoxicity judgement in words: tested concentrations 0.001-100 µM. The procedure: as §1

A further data set has as its system Plasmodium 3D7 strain. Also noted: method as in PMID 14697777. The settings on record: 3D7 strain ref 7; read-out: IC50 anti-Plasmodium 3D7 strain; cited from earlier work.
Data set [3] has as its system P. falciparum (3D7) isolated parasites. Description: Cytosolic calcium in isolated parasites loaded with Fluo4/AM (spectrofluorimetry). The class given is cell-based, Plasmodium falciparum. The settings on record: 2c 100 µM. The procedure:
Erythrocytes (RBCs) infected by P. falciparum (3D7) at the trophozoite stage were lysed with 10 mg/mL saponin (in phosphate-buffered saline) in the presence of 20 µg/mL protease inhibitors (pepstatin A, leupeptin, antipain and chymostatin) and benzamidine (0.5 mmol/L). Erythrocyte membranes were then removed through centrifugation (8700 rpm for 10 min at 4 °C). The parasites were washed three times in buffer M (116 mM NaCl, 5.4 mM KCl, 0.8 mM MgSO4, 5.5 mM D-glucose, 50 mM MOPS, pH 7.3) with CaCl2 (2 mM). The parasites were then re-suspended in the same buffer with Fluo4-AM (5 μM) probenecid (1.8 mM), an inhibitor of organic anion transport (to prevent dye sequestration and release), […] protease inhibitors (pepstatin A, leupeptin, antipain and chymostatin) and benzamidine (0.5 mmol/L) for 50 min at 37 °C. The parasite suspension was then washed three times with buffer M. Spectrofluorimetric measurements were performed in a Shimadzu RF-5301 PC instrument at 37 °C with isolated P. falciparum (3D7) parasites (10^8 cells mL^−1) incubated with MOPS buffer in a 1 mL cuvette. Compound 2c (100 μM) and THG (10 μM) were added during time course experiments, and excitation/emission wavelengths were adjusted to 505/530 nm for Fluo4-AM. Methanol (0.05%) was used as a control. […]

Data set [4] has as its system P. falciparum chloroquine-sensitive Thai strain. Also noted: method as in PMID 17967541. Conditions: chloroquine-sensitive Thai strain ref 10; cited from earlier work.
Another data set concerns P. berghei. More on the design: method as in PMID 10190183. The settings on record: 250 mg/kg/day ref 6; cited from earlier work.
Where [5] appears, read: chloroquine-sensitive 3D7 strain, 48 h incubation, n = 3, read-out: IC50 (µM) P. falciparum 3D7.
Setting [6] is: 24 h, read-out: IC50 (µM) HEK293T 24 h.
[7] abbreviates: 48 h, read-out: IC50 (µM) HEK293T 48 h.
The mark [8] stands for this setting: chloroquine-sensitive 3D7 strain, 48 h incubation, values in nM, read-out: IC50 P. falciparum 3D7.

Molecules are shown by their SMILES. “Also recorded” adds a separate entry of the source. Where two headings read alike, the source gives them in different places.

A word on the IC50: it is the concentration that inhibits the measured activity by half. By melting point is commonly meant the temperature of the solid-liquid transition.

Take `CC(=O)O[C@H]1CC[C@@]2(C)C(CC[C@]3(C)C2CC=C2C4[C@@H](C)[C@H](C)CC[C@]4(C(=O)NCCCN4CCN(CCCNC(=O)OC(C)(C)C)CC4)CC[C@]23C)C1(C)C` (some centres unmarked) [2b]: in data set [1] (setting [5]), the IC50 was found to be 15 µM.
For `C=C(C)[C@@H]1CC[C@]2(C(=O)NCCCN3CCN(CCCNC(=O)OC(C)(C)C)CC3)CC[C@]3(C)C(CCC4[C@@]5(C)CC[C@H](OC(C)=O)C(C)(C)C5CC[C@]43C)C12` (some centres unmarked) [1b, N-{3-[4-(3-Aminopropyl)piperazinopropyl]terbutylcarbamate}-3-acetylbetulinamide], the melting point stood at 129 °C. Also, the “Antiplasmodial activity grade in words” value in data set [1] is reported as “good activity”. The IC50 in data set [1] (setting [5]) amounted to 5 µM. In data set [2], this compound showed an IC50 of 4 µM. For the same compound, the “Selectivity Index (SI) 48 h” value in the data set with HEK293T cells was 0.8. Further, in the data set with HEK293T cells (setting [6]), the IC50 is 4 µM. For the same compound, the IC50 with HEK293T cells (setting [7]) was determined as 4 µM.
In the case of `C=C(C)[C@@H]1CC[C@]2(C(=O)OC)CC[C@]3(C)[C@H](CC[C@@H]4[C@@]5(C)CC[C@H](O)C(C)(C)[C@@H]5CC[C@]43C)[C@@H]12` [methyl betulinate, reference compound], in the data set on Plasmodium 3D7 strain, the IC50 was 7 µM.
Turning to `C=C(C)[C@@H]1CC[C@]2(C(=O)O)CC[C@]3(C)[C@H](CC[C@@H]4[C@@]5(C)CC[C@H](OC(C)=O)C(C)(C)[C@@H]5CC[C@]43C)[C@@H]12` [1a, 3-O-Acetylbetulinic acid], the “Antiplasmodial activity grade in words” value in data set [1] is “good activity”. Further, the IC50 in data set [1] (setting [5]) is 4 µM; with HEK293T cells (setting [6]), more than 100 µM; in the data set on HEK293T cells (setting [7]), more than 100 µM. Besides, in the data set with HEK293T cells, the “Cytotoxicity judgement in words” value was “not toxic; also recorded: not cytotoxic at the tested concentrations”.
Turning to `C[C@H]1[C@H](C)CC[C@]2(C(=O)O)CC[C@]3(C)C(=CC[C@@H]4[C@@]5(C)CC[C@H](O)C(C)(C)[C@@H]5CC[C@]43C)[C@H]12` [compound 2, Ursolic acid], the “Antiplasmodial activity grade in words” value in data set [1] was “inactive”. Moreover, the IC50 in data set [1] (setting [5]) came out at 36 µM.
Turning to `CC(=O)OC1CCC2(C)C(CCC3(C)C2CC=C2C4C(C)C(C)CCC4(C(=O)NCCCN4CCN(CCCN)CC4)CCC23C)C1(C)C` (centres unmarked) [2c], the “Antiplasmodial activity grade in words” value in data set [1] was “excellent activity”. Moreover, the IC50 in data set [1] (setting [5]) was 0.175 µM; in data set [1] (setting [8]), 0.175 to 0.22 µM; in data set [2] (HEK293T cells, HEK293T, time not stated, read-out: IC50 cytotoxicity HEK293T), 4 µM; with HEK293T cells (setting [6]), 4 µM; in the data set with HEK293T cells (setting [7]) it was 4 µM; in data set [4], 167 nM. In addition, in the data set on HEK293T cells, the “Selectivity Index (SI) 48 h” value is listed as 23. Moreover, the “Cytotoxicity judgement in words” value with HEK293T cells is “non-toxic”. The “Effect on parasite calcium homeostasis, in words” value in data set [3] (followed by THG 10 µM) is given as “can modulate parasite calcium homeostasis; also recorded: led to an increase in intracellular ion concentrations in P. falciparum”. Further, the “Ca2+ concentration, Fluo4/AM fluorescence after addition of compound” value in data set [3] (isolated parasites 10^8 cells mL-1, mean ± SEM, n = 9, P = 0.0004 vs methanol 0.05%) was found to be 104.9 a.u.
Take `CCN(CC)CCCC(C)Nc1ccnc2cc(Cl)ccc12` (centres unmarked) [chloroquine, reference compound]: the IC50 in data set [1] (3D7, 48 h, read-out: IC50 P. falciparum 3D7) came out at 0.029 µM.
As to `CC(=O)O[C@H]1CC[C@@]2(C)C(CC[C@]3(C)C2CC=C2C4[C@@H](C)[C@H](C)CC[C@]4(C(=O)O)CC[C@]23C)C1(C)C` (some centres unmarked) [2a], in data set [1] (setting [5]), the IC50 turned out to be 14 µM.
Turning to `C=C(C)[C@@H]1CC[C@]2(C(=O)O)CC[C@]3(C)[C@H](CC[C@@H]4[C@@]5(C)CC[C@H](O)C(C)(C)[C@@H]5CC[C@]43C)[C@@H]12` [compound 1, Betulinic acid], the “Antiplasmodial activity grade in words” value in data set [1] is “moderate activity”. Moreover, the IC50 was 18 µM in data set [1] (setting [5]) and 13.9 µM in the data set on Plasmodium 3D7 strain. Moreover, in the data set with P. berghei, the “Efficacy in murine malarial model of P. berghei” value was “ineffective”.
`C=C(C)[C@@H]1CC[C@]2(C(=O)NCCCN3CCN(CCCN)CC3)CC[C@]3(C)C(CCC4[C@@]5(C)CC[C@H](OC(C)=O)C(C)(C)C5CC[C@]43C)C12` (some centres unmarked) [1c, N-{3-[4-(3-aminopropyl)piperazinyl]propyl}-3-acetylbetulinamide] displayed a melting point of 120 °C. In addition, the “Antiplasmodial activity grade in words” value in data set [1] is “excellent activity”. Also, the IC50 in data set [1] (setting [5]) stood at 0.22 µM. Moreover, the IC50 in data set [1] (setting [8]) fell in the range of 0.175 to 0.22 µM. This compound also showed a concentration for half-maximal inhibition (IC50) in data set [2] of 4 µM. Further, the “Selectivity Index (SI) 48 h” value in the data set on HEK293T cells was found to be 18. Besides, in the data set on HEK293T cells (setting [6]), the IC50 worked out at 4 µM. For the same compound, the concentration for half-maximal inhibition (IC50) in the data set with HEK293T cells (setting [7]) was determined as 4 µM.
